# Experimental data taken from PMC7215373, “Design, Synthesis, and Anticancer Evaluation of Novel Indole Derivatives of Ursolic Acid as Potential Topoisomerase II Inhibitors” (International Journal of Molecular Sciences, 2020).
# What was measured:
# LO2 cells = experiment: MTT cytotoxicity assay, normal hepatocyte LO2; assay type: cell-based; settings: Homo sapiens, L02, 48 h exposure, normal hepatocyte cell line
# In short: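 Cells in DMEM with 10% FBS were seeded and allowed to attach for 24 h. They were then exposed to compound dilutions for 48 h at 37 °C, 5% CO2. Viability was measured by MTT (4 h), with formazan dissolved in DMSO and read at 570 nm.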
# DNA topoisomerase I = target: T1, DNA topoisomerase I (Bos taurus, UniProt F1MN93); experiment: Topoisomerase I relaxation assay (supercoiled pBR322); assay type: biochemical; settings: 100 μM compound; read-out: Topo I Inhibition (%) 100 μM
# T1 construct: purchased TaKaRa, Kyoto, Japan
# T1 sequence (F1MN93 1-767): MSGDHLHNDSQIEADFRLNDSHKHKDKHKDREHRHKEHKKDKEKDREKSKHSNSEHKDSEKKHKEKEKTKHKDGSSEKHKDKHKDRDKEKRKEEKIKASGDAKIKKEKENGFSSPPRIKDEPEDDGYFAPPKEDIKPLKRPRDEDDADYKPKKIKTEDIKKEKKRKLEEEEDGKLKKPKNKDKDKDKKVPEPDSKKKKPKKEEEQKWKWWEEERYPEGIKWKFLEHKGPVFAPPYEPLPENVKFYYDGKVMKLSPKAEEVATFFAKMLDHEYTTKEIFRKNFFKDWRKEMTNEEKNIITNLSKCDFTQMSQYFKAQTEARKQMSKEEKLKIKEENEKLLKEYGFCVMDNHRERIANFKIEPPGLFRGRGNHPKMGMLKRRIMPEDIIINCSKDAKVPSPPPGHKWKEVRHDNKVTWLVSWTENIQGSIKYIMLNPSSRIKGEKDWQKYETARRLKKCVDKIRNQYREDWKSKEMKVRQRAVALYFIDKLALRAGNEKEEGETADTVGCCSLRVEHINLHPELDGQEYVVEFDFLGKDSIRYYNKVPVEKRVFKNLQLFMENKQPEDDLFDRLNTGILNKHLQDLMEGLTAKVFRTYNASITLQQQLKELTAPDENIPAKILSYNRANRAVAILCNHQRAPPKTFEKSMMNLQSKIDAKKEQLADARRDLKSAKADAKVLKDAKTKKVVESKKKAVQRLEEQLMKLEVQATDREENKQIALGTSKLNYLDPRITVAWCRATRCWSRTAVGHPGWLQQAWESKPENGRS
# In short: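 Relaxation of supercoiled pBR322 by topoisomerase I, 30 min at 37 °C; stopped with SDS dye. Products resolved on 1% agarose in 1× TAE for 1 h, ethidium bromide-stained, with relaxed vs supercoiled DNA visualized under UV.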
# SMMC-7721 cells [1] = experiment: Annexin V-FITC/PI staining apoptosis assay by flow cytometry; assay type: cell-based, human; settings: 48 h, control 4.41%
# Protocol: To further investigate the role of apoptosis in the antitumor activity of compound 5f, SMMC-7721 cells were treated with different concentrations of compound 5f (0, 0.3, 0.6, and 1.2 μM) for 48 h. Then the treated cells were stained with Annexin V-FITC/PI followed by flow cytometry analysis.
# The extent of apoptosis was quantitatively measured using Annexin V-FITC/PI dual staining assay. SMMC-7721 cells were seeded into a six-well plate at 5 × 10^5 cells per well in 10% fetal calf serum (FBS)-DMEM into six-well plates and treated with different concentrations of the indicated compound 5f for 48 h. The cells were detached with 0.25% trypsin, washed with ice-cold PBS for twice and then resuspended in 1 × Binding buffer (0.1 M Hepes/NaOH (pH 7.4), 1.4 M NaCl, 25 mM CaCl2). The cells were stained with 5 μL of Annexin V-FITC and 5 μL of PI ([…]) to each tube. The cells were gently vortexed and incubated in the dark at room temperature for 15 min and then kept at 4 °C. The samples were analyzed by a flow cytometer (Becton-Dickinson FACSCalibur, Franklin Lakes, NJ, USA), and data were analyzed using the FlowJo software (Becton-Dickinson Biosciences, Franklin Lakes, NJ, USA).
# SMMC-7721 cells [2] = experiment: AO/EB double staining assay; assay type: cell-based, human; settings: 0.3, 0.6 and 1.2 μM, 48 h
# Source text: Apoptosis induced by compound 5f was further evaluated using acridine orange / ethidium bromide (AO/EB) double staining. AO, as a vital dye showing green fluorescence, can pass through cell membrane of living or dead cells, while EB only stains apoptotic or necrotic cells that have lost their integrity and appear red fluorescence. Therefore, the normal cells will be stained only by AO with bright green while apoptotic cells will be stained by AO and EB with red-orange [26, 27].
# SMMC-7721 cells were seeded into six-well plates and incubated at 37 °C with 5% CO2 for 24 h. Then, the cells were exposed to different concentrations of compound 5f (0, 0.3, 0.6, and 1.2 μM) for 48 h. After that, 10 μL of each fluorescent dye cantaining AO and EB (10 μg/mL) were added to each well in equal volumes respectively and incubated for 5 min in the dark. The cells were visualized through an inverted fluorescence microscope (Olympus 1X71 Inverted System Microscope, Olympus, Tokyo, Japan).
smiles,measurement,setting,value
"Cc1ccc2[nH]c3c(c2c1)C[C@@]1(C)C(CC[C@]2(C)C1CC=C1C4[C@@H](C)[C@H](C)CC[C@]4(C(=O)NCCCN4CCN(C)CC4)CC[C@]12C)C3(C)C (stereo partly drawn) [5f, N-(3-(4-Methylpiperazin-1-yl)propyl)-5′-methyl-1′H-ursa-2,12-dieno[3,2-b]indol-28-carboxamide]",IC50,LO2 cells,10.6 ± 0.52 µM
same,inhibition at 100 µM,DNA topoisomerase I,0%
same,percentage of early and late apoptotic cells,SMMC-7721 cells [1]; 0.3 μM,9.13%
same,percentage of early and late apoptotic cells,SMMC-7721 cells [1]; 0.6 μM,21.36%
same,percentage of early and late apoptotic cells,SMMC-7721 cells [1]; 1.2 μM,30.33%
same,apoptosis by AO/EB staining (fluorescence microscopy),SMMC-7721 cells [2],induced apoptosis
